Assay [1] addresses Glutamate receptor ionotropic, NMDA 1 (Rattus norvegicus, UniProt P35439). The assay can be described thus: Binding selectivity towards N-methyl-D-aspartate glutamate receptor 1 was determined by using [3H]- glycine/NMDA.
In assay [2] the target is Glutamate receptor ionotropic, AMPA (Rattus norvegicus, UniProt P19490+P19491+P19492+P19493). The assay can be described thus: Binding selectivity towards Ionotropic glutamate receptor AMPA was determined by using [3H]- AMPA. It counts as protein-complex assay.

In ChEMBL document CHEMBL1145086, “Selectivity fields: comparative molecular field analysis (CoMFA) of the glycine/NMDA and AMPA receptors” (J Med Chem, 2003) one finds Ki data, which are given here for 19 compounds.

Values joined by “and” are separate entries in the source; they are usually repeats but may differ in a detail not shown here. Equal entries are not always repeated.

By Ki is commonly meant the equilibrium dissociation constant of an inhibitor or competing ligand from its target. In turn, `CCOC(=O)c1nc2c(=O)[nH]c3cc(Cl)c(N)cc3n2n1` returned a Ki in assay [1] of 4.8 µM. Regarding `CCOC(=O)c1nc2c(O)nc3ccc(Cl)c(Cl)c3n2n1`, the Ki in assay [1] was found to be 4.8 µM; in assay [2] it was 4.9 µM. As to `CCOC(=O)c1nc2c(=O)[nH]c3cc(Cl)c(-n4ccc[n+]4C=O)cc3n2n1`, the values for the Ki in assay [1] and in assay [2] were 19 µM and 1.9 µM, respectively.

`CCOC(=O)c1cc2n(n1)C(C(=O)O)Nc1cc(Cl)c([N+](=O)[O-])cc1-2` (stereo not given): the Ki in assay [1] turned out to be 10.6 µM; in assay [2], 8.2 µM.

For `O=C(O)c1cc2n(n1)C(C(=O)O)Nc1cc(Cl)c(Cl)cc1-2` (stereo not given), the Ki turned out to be 0.16 µM in assay [1] and 2.4 µM in assay [2]. For `O=C[n+]1cccn1-c1cc2c(cc1Cl)NC(C(=O)O)n1nc(C(=O)O)cc1-2` (stereo not given), the inhibitory constant (Ki) was 8.2 µM in assay [1] and 0.27 µM in assay [2]. For `O=C(O)c1cc2n(n1)C(C(=O)O)Nc1cc(Cl)c(-n3ccnc3)cc1-2` (stereo not given), the inhibition constant (Ki) in assay [1] is 8.3 µM; in assay [2], 0.14 µM. The like results for `O=C(O)c1nc2c(=O)[nH]c3cc(Cl)c(-n4ccnc4)cc3n2n1` were, in that order, 33.5 µM and 0.14 µM. With `O=C(O)c1nc2c(=O)[nH]c3cc(Cl)c(-n4cccn4)cc3n2n1`, the inhibitory constant (Ki) is 0.86 µM and 5.3 µM in assay [1]; 0.86 µM in assay [2].

The compound `CCOC(=O)c1nc2c(O)nc3cc(Cl)c([N+](=O)[O-])cc3n2n1` showed a Ki in assay [1] of 10.2 µM.

Take `CCOC(=O)c1nc2c(O)nc3cc(Cl)c(-n4cccn4)cc3n2n1`: the figures for the Ki in assay [1] and in assay [2] were 23 µM and 18.4 µM, respectively. The matching figures for `CCOC(=O)c1cc2n(n1)C(C(=O)O)Nc1cc(Cl)c(-n3ccc[n+]3C=O)cc1-2` (stereo not given): 57 µM and 1.4 µM. The matching figures for `O=C[n+]1cccn1-c1cc2c(cc1Cl)[nH]c(=O)c1nc(C(=O)O)nn12`: 28 µM and 0.53 µM. In assay [1], `Nc1cc2c(cc1Cl)nc(O)c1nc(C(=O)O)nn12` came in with a Ki of 3.6 µM. On to `O=C(O)c1cc2n(n1)C(C(=O)O)Nc1cc(Cl)c([N+](=O)[O-])cc1-2` (stereo not given), for which the figures for the inhibitory constant (Ki) in assay [1] and in assay [2] were 1.1 µM and 0.74 µM, respectively. The matching figures for `O=C(O)c1cc2n(n1)C(C(=O)O)Nc1ccccc1-2` (stereo not given): 1.41 µM and 12.4 µM.

`CCOC(=O)c1cc2n(n1)C(C(=O)O)Nc1ccccc1-2` (stereo not given): the results for the inhibitory constant (Ki) in assay [1] and in assay [2] were 33.3 µM and 42 µM, respectively.

As to `O=C(O)c1cc2n(n1)C(C(=O)O)Nc1cc(Cl)ccc1-2` (stereo not given), the figures for the Ki in assay [1] and in assay [2] were 0.48 µM and 2.3 µM, respectively. The matching figures for `CCOC(=O)c1cc2n(n1)C(C(=O)O)Nc1cc(Cl)ccc1-2` (stereo not given): 26.5 µM and 72 µM.
